The results in this text go back to PubChem BioAssay (NCI).

Some test systems named below: TK-10 renal; A498 renal; DU-145 prostate; SK-OV-3 ovarian; SF-295 CNS; HOP-62 NSCLC; CAKI-1 renal; SN12C renal; CCRF-CEM leukemia; EKVX NSCLC.
What all share (assay): growth of human tumour cells (NCI), 48 h

SMILES strings stand for the structures. Several values for one entry are separate records, joined by “and”; a condition that tells them apart may be missing. Equal entries are not always repeated.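 Each compound was tested at five concentrations against cells in 96-well plates for 48 hours. GI50 is the concentration that inhibits growth by half. TGI denotes the concentration required for complete inhibition of growth.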 Bounds are passed on as bounds.

On to `CN(CCC#N)c1ccc(/C=C(\C#N)c2cccc(C(F)(F)F)c2)cc1`, for which the GI50 in the assay with TK-10 renal is 3.12 µM; in the assay with A498 renal it was 1440 nM; in the assay with DU-145 prostate, 11.3 µM; in the assay with SK-OV-3 ovarian it was 36.7 µM; in the assay with SF-295 CNS, 3870 nM; in the assay on HOP-62 NSCLC, 6.2 µM. The GI50 in the assay on CAKI-1 renal was 4240 nM; in the assay on SN12C renal it was 4.17 µM. For the same molecule, the TGI in the assay with TK-10 renal was greater than 100 µM; with A498 renal it was 8.89 µM; with DU-145 prostate, greater than 100 µM; in the assay on SK-OV-3 ovarian, greater than 100 µM; in the assay on SF-295 CNS it was greater than 100 µM; with HOP-62 NSCLC it was greater than 100 µM. For the same molecule, the TGI with CAKI-1 renal and with SN12C renal was greater than 100 µM each time.

Turning to `CC(C)(C)[Si](C)(C)OCC1CCC(n2cnc3c(=O)[nH]cnc32)O1` (configuration not stated), the TGI in the assay with TK-10 renal, in the assay with DU-145 prostate, in the assay with SK-OV-3 ovarian, with CCRF-CEM leukemia, in the assay on SF-295 CNS and in the assay with HOP-62 NSCLC was greater than 100 µM in each case. For the same molecule, the TGI in the assay with CAKI-1 renal, in the assay on EKVX NSCLC and in the assay with SN12C renal was greater than 100 µM each time.

In the case of `COc1cccc(C(=O)Nc2ccc(CN3CCc4nc5cc(OC)c(OC)cc5cc43)cc2)c1`, the GI50 is 3.78 µM with TK-10 renal; 1670 nM in the assay on A498 renal; 4.55 µM in the assay on DU-145 prostate; 18.5 µM in the assay with SK-OV-3 ovarian; 3350 nM with CCRF-CEM leukemia; 5720 nM in the assay on SF-295 CNS. Moreover, the figures for the GI50 in the assay on HOP-62 NSCLC, with CAKI-1 renal and with SN12C renal were 13.5 µM, 3000 nM and 3.9 µM, respectively. The TGI in the assay on TK-10 renal was 21.4 µM; with A498 renal, 9.07 µM; in the assay on DU-145 prostate it was 67.9 µM; with SK-OV-3 ovarian it was greater than 100 µM; in the assay with CCRF-CEM leukemia it was 36.5 µM; in the assay on SF-295 CNS, 28.1 µM. Further, the results for the TGI in the assay with HOP-62 NSCLC, in the assay with CAKI-1 renal and in the assay on SN12C renal were 37.8 µM, 20.9 µM and 16.4 µM, respectively.

Consider `O=C1c2ccccc2NC(c2cc(Cl)cc(Cl)c2O)N1CCc1ccccn1` (configuration not stated), for which the TGI in the assay on TK-10 renal, in the assay with A498 renal, with DU-145 prostate, with SK-OV-3 ovarian, in the assay with SF-295 CNS and with HOP-62 NSCLC was greater than 100 µM throughout. Besides, the TGI in the assay on CAKI-1 renal, in the assay on EKVX NSCLC and in the assay with SN12C renal was greater than 100 µM each time.

For `N=Nc1c(OC(=O)Nc2ccccc2)[nH]c2ccccc12`, the TGI in the assay with TK-10 renal came to 60.8 µM; with A498 renal, 34.7 µM; with DU-145 prostate, 22.7 µM; in the assay on SK-OV-3 ovarian, 36.8 µM; with SF-295 CNS, 30.2 µM; with HOP-62 NSCLC, 36.4 µM. The figures for the TGI in the assay with CAKI-1 renal, in the assay with EKVX NSCLC and in the assay on SN12C renal were 32.8 µM, greater than 100 µM and 48.7 µM, respectively.

Take `COc1cc(NS(C)(=O)=O)ccc1Nc1c2ccccc2nc2c(C)cccc12`: the GI50 in the assay on TK-10 renal was 0.476 µM and 0.16 µM; in the assay on A498 renal, 80.6 nM and 96.8 nM; in the assay with DU-145 prostate, 0.145 µM and 0.163 µM; in the assay with SK-OV-3 ovarian, 0.302 µM and 0.332 µM; in the assay on CCRF-CEM leukemia, 32.2 nM and 36.4 nM; in the assay on SF-295 CNS, 39.9 nM and 87.4 nM. For the same molecule, the GI50 with HOP-62 NSCLC is 0.104 µM and 0.117 µM; in the assay with CAKI-1 renal it was 73 nM and 92.3 nM; in the assay on SN12C renal, 0.0961 µM and 0.087 µM. Moreover, the TGI is 2.94 µM and 1.38 µM with TK-10 renal; 1.03 µM and 1.6 µM in the assay on A498 renal; 7 µM and 11.5 µM in the assay on DU-145 prostate; 7.8 µM and 11 µM in the assay on SK-OV-3 ovarian; 0.386 µM and 3.46 µM with SF-295 CNS; 1.37 µM and 1.34 µM with HOP-62 NSCLC. The TGI in the assay with CAKI-1 renal was 4.6 µM and 5.71 µM; in the assay on SN12C renal it was 1.36 µM and 2.08 µM.

For the molecule `Oc1c(C(Nc2cccc3ccccc23)c2ccccc2)ccc2cccnc12` (configuration not stated), the GI50 was 11 µM in the assay on TK-10 renal; 3270 nM in the assay on A498 renal; 7.22 µM in the assay with DU-145 prostate; 5.9 µM in the assay with SK-OV-3 ovarian; 2960 nM in the assay with SF-295 CNS; 4.9 µM in the assay with HOP-62 NSCLC. The values for the GI50 in the assay on CAKI-1 renal, in the assay with EKVX NSCLC and in the assay with SN12C renal were 2150 nM, 2930 nM and 4.1 µM, respectively. Moreover, the TGI in the assay with TK-10 renal is 45.8 µM; with A498 renal, 23.9 µM; in the assay with DU-145 prostate, greater than 100 µM; with SK-OV-3 ovarian it was greater than 100 µM; with SF-295 CNS, greater than 100 µM; in the assay on HOP-62 NSCLC, greater than 100 µM. Further, the values for the TGI in the assay with CAKI-1 renal, in the assay with EKVX NSCLC and in the assay on SN12C renal were 6.54 µM, 41.1 µM and greater than 100 µM, respectively.

On to `Cc1cc2cccnc2c2ncccc12`, for which the GI50 in the assay on TK-10 renal was 0.713 µM; in the assay on A498 renal, 1590 nM; in the assay with DU-145 prostate, 1.02 µM; with SK-OV-3 ovarian, 0.756 µM; in the assay with SF-295 CNS it was 555 nM; with HOP-62 NSCLC, 1.45 µM. For the same molecule, the values for the GI50 in the assay with CAKI-1 renal, in the assay on EKVX NSCLC and with SN12C renal were 244 nM, 665 nM and 1.18 µM, respectively. Besides, the TGI is 23.9 µM in the assay on TK-10 renal; 7.3 µM with A498 renal; greater than 100 µM in the assay on DU-145 prostate; 8.42 µM with SK-OV-3 ovarian; 4.57 µM in the assay on SF-295 CNS; greater than 100 µM with HOP-62 NSCLC. The TGI with CAKI-1 renal was 0.758 µM; in the assay with EKVX NSCLC, 16 µM; in the assay with SN12C renal it was greater than 100 µM.

On to `O=C(Cn1c(=O)c(-c2ccccc2)nc2ccccc21)c1ccc(Cl)cc1`, for which the GI50 in the assay on TK-10 renal was 25.7 µM; in the assay on DU-145 prostate, 52.2 µM; in the assay with SK-OV-3 ovarian, 46.4 µM; with CCRF-CEM leukemia, greater than 100000 nM; in the assay on SF-295 CNS it was 35700 nM; in the assay with HOP-62 NSCLC, 33.4 µM. The GI50 is 67500 nM in the assay with CAKI-1 renal, 94200 nM in the assay with EKVX NSCLC and 48.6 µM with SN12C renal. For the same molecule, the TGI with TK-10 renal, in the assay with DU-145 prostate, with SK-OV-3 ovarian, with CCRF-CEM leukemia, in the assay with SF-295 CNS and with HOP-62 NSCLC was greater than 100 µM in each case. In addition, the TGI with CAKI-1 renal, in the assay with EKVX NSCLC and in the assay on SN12C renal was greater than 100 µM throughout.
